Our source for the GI50 and TGI values is PubChem BioAssay (NCI).

Common to all, as to assay: NCI-60 cell line screen, 48 h
Experiment [1] has as its system NCI-H522 lung.
For experiment [2], the system named is COLO 205 colon.
Experiment [3] has as its system SNB-75 CNS.
Experiment [4] relates to SF-295 CNS.
The subject of experiment [5] is HL-60(TB) leukemia.
Experiment [6] concerns MOLT-4 leukemia.
The test system of experiment [7] is A498 renal.
Experiment [8] concerns TK-10 renal.
Experiment [9] concerns LOX IMVI melanoma.
Experiment [10] concerns HS 578T breast.

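A five-concentration, 48-hour dose response in 96-well plates underlies each endpoint, interpolated linearly between surrounding concentrations. Here, GI50 denotes the concentration required for 50% inhibition of growth. TGI marks complete inhibition of growth.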

On to `NC(=O)c1cc(S(=O)(=O)Nc2nnc(-c3ccccc3)c(-c3ccccc3)n2)c(SCc2ccccc2)cc1Cl`, for which the GI50 was more than 44 µM in experiment [1]; more than 100 µM in [2]; more than 57.7 µM in experiment [4]; 23.1 µM in experiment [5]; 38.2 µM in [6]; more than 88.6 µM in [7]. Moreover, the GI50 was more than 100 µM in experiment [8], more than 82.3 µM in [9] and more than 44.4 µM in [10]. The TGI in experiment [1] is more than 68.3 µM; in [2] it was more than 100 µM; in [3], more than 61.5 µM; in experiment [4] it was more than 100 µM; in experiment [5], 49.6 µM; in experiment [6], more than 70.1 µM. The TGI in experiment [7] is more than 100 µM; in experiment [8], more than 100 µM; in experiment [9] it was more than 100 µM; in experiment [10] it was more than 75.5 µM.
As to `O=C1NC(=O)/C(=C\c2ccccc2)C2=C1CCCC2`, the GI50 is 13.7 µM in experiment [1]; 3.86 µM in experiment [2]; 11.9 µM in experiment [3]; 3.98 µM in [4]; 3.25 µM in [5]; 2.77 µM in [6]. In addition, the GI50 in experiment [7] was 12.9 µM; in experiment [8], 12 µM; in experiment [9], 1.85 µM; in experiment [10], 3.46 µM. For the same molecule, the TGI in experiment [1] amounted to 32.1 µM; in [2], 14.6 µM; in experiment [3] it was 24.7 µM; in [4], 17.6 µM; in [5], 12.5 µM; in experiment [6], 7.73 µM. Further, the TGI in experiment [7] turned out to be 26.1 µM; in experiment [8], 25.3 µM; in [9], 4.06 µM; in experiment [10], 22.8 µM.
In the case of `Cc1nn(C(=O)Cc2ccccc2)c2c1C(c1ccc(Cl)cc1)SC(N)=N2` (centres undefined), the TGI is more than 100 µM in experiment [1]; more than 100 µM in experiment [2]; 96.9 µM in [3]; more than 100 µM in [4]; more than 100 µM in [5]; more than 100 µM in [6]. Besides, the TGI in [7], in experiment [8], in [9] and in experiment [10] was more than 100 µM throughout.
Consider `CN(CCO)c1ccc(N2Cc3ccccc3OC3=C2C(=O)c2c(O)ccc(O)c2C3=O)cn1`, for which the GI50 is 0.0323 µM in experiment [1]; 0.133 µM in [2]; 0.348 µM in experiment [3]; 1.41 µM in experiment [4]; 0.114 µM in [5]; 0.135 µM in experiment [6]. Also, the GI50 in experiment [7] is 2.17 µM; in [8], 0.248 µM; in [9], 0.114 µM; in [10] it was 0.418 µM. For the same molecule, the TGI was 0.116 µM in [1]; 0.302 µM in [2]; 1.8 µM in experiment [3]; 3.52 µM in [4]; 0.406 µM in experiment [5]; 1.19 µM in experiment [6]. The TGI was 5.66 µM in experiment [7], 0.632 µM in experiment [8], 0.33 µM in [9] and more than 100 µM in experiment [10].
As to `CN(C)CCNC(=O)c1ccc2nc3c(nc2c1)C(=O)c1ccccc1-3`, the TGI in [1] was more than 100 µM; in experiment [2], more than 100 µM; in experiment [3] it was more than 100 µM; in [4], more than 100 µM; in experiment [5], 38.2 µM; in experiment [6] it was 52.6 µM. Besides, the TGI is more than 100 µM in experiment [7], more than 100 µM in experiment [8], 73.4 µM in [9] and more than 100 µM in [10].
Take `COc1ccc(-c2coc3c4c(ccc3c2=O)OCO4)cc1OC`: the TGI in experiment [1], in [2], in experiment [3], in [4], in experiment [5] and in experiment [6] was more than 100 µM in each case. Also, the TGI in [7], in experiment [8], in [9] and in experiment [10] was more than 100 µM throughout.
With `COc1cc(C(=O)N2CCN(c3ncccn3)CC2)c(N)cc1OCc1ccccc1`, the GI50 in experiment [1] is more than 100 µM; in experiment [2], more than 100 µM; in [3], 50.7 µM; in [4] it was more than 100 µM; in [5], more than 100 µM; in experiment [6] it was 81.6 µM. Further, the GI50 is 54.2 µM in [7], more than 100 µM in experiment [8], more than 100 µM in [9] and more than 100 µM in experiment [10]. In addition, the TGI in experiment [1], in experiment [2], in [3], in experiment [4], in [5] and in [6] was more than 100 µM each time. For the same molecule, the TGI in [7], in experiment [8], in [9] and in [10] was more than 100 µM throughout.
In the case of `c1ccc2c(c1)c1c(c3ccccc32)CN2CCCC2C1` (centres undefined), the TGI in [1] is 9.9 µM; in [2] it was 13.8 µM; in experiment [3] it was 35.3 µM; in experiment [4], more than 35.5 µM; in experiment [5] it was 4.21 µM; in experiment [6] it was more than 100 µM. Besides, the TGI is 12.1 µM in experiment [7], more than 90.8 µM in [8], 9.46 µM in [9] and 13.8 µM in experiment [10].
As for `O=CN1CCN(CC(O)CN2CCCCC2)CC1` (centres undefined), the TGI in experiment [1], in experiment [2], in experiment [3], in experiment [4], in experiment [5] and in experiment [6] was more than 100 µM throughout. The TGI in [7], in experiment [8], in experiment [9] and in experiment [10] was more than 100 µM in each case.
Regarding `Cc1cc(C)c(/C=C2\C(=O)Nc3ccc(NC(=O)CCCCCCC(=O)NO)cc32)[nH]1`, the GI50 in experiment [1] is 0.208 µM; in [2], 0.479 µM; in [3] it was 0.227 µM; in experiment [4] it was 1.44 µM; in experiment [5] it was 0.506 µM; in experiment [6], 0.43 µM. Further, the GI50 was 1.4 µM in [7], 3.1 µM in [8], 0.493 µM in experiment [9] and 2.96 µM in experiment [10]. Also, the TGI in experiment [1] was 1.82 µM; in [2], 2.32 µM; in experiment [3], more than 100 µM; in experiment [4], more than 45.7 µM; in experiment [5], more than 100 µM; in [6] it was 35.3 µM. In addition, the TGI in experiment [7] is 18.2 µM; in experiment [8] it was more than 100 µM; in [9], 12.9 µM; in [10] it was more than 100 µM.
Consider `c1ccc2nc3c(nc2c1)sc1ccccc13`, for which the TGI is more than 100 µM in experiment [1]; more than 100 µM in [2]; 62.8 µM in [3]; more than 100 µM in [4]; more than 100 µM in [5]; more than 100 µM in experiment [6]. Besides, the TGI in experiment [7] is 78.2 µM; in [8], 39.3 µM; in [9], more than 100 µM; in experiment [10], more than 100 µM.
In the case of `C1=C\COCc2cc(ccc2OCCN2CCCC2)Nc2nccc(n2)-c2cccc(c2)COC/1`, the GI50 was 3.08 µM in [1]; 1.35 µM in experiment [2]; 1.64 µM in [3]; 3.34 µM in experiment [4]; 1.28 µM in experiment [5]; 1.33 µM in experiment [6]. In addition, the GI50 is 1.86 µM in [7], 3.33 µM in experiment [8], 0.847 µM in experiment [9] and 1.18 µM in experiment [10]. In addition, the TGI in experiment [1] was determined as 5.23 µM; in experiment [2], 4.29 µM; in experiment [3], 4.75 µM; in experiment [4], 5.94 µM; in [5], 4.79 µM; in experiment [6] it was 4.9 µM. In addition, the TGI in [7] came to 5.32 µM; in experiment [8] it was 5.79 µM; in [9], 2.88 µM; in experiment [10] it was 5.78 µM.
For the molecule `N=C(N)c1ccc2nc(-c3cc(CC(=O)N[C@@H](CC(=O)O)C(=O)O)cc(-c4cc(S(N)(=O)=O)ccc4O)c3O)[nH]c2c1`, the GI50 in experiment [1], in experiment [2], in experiment [3], in experiment [4], in [5] and in [6] was more than 100 µM each time. In addition, the GI50 in experiment [7], in experiment [8], in experiment [9] and in [10] was more than 100 µM in each case. Also, the TGI in [1], in experiment [2], in [3], in [4], in experiment [5] and in experiment [6] was more than 100 µM throughout. Moreover, the TGI in [7], in [8], in [9] and in experiment [10] was more than 100 µM in each case.
